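Cells were grown in 96-well plates and exposed to each compound for 48 hours at five concentrations; endpoints were interpolated linearly between bracketing concentrations, or set to the highest concentration if not reached. At the TGI there is no net growth.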

Among the test systems are KM12 colon; OVCAR-8 ovarian; LOX IMVI melanoma; T-47D breast; SR leukemia; HCT-15 colon; OVCAR-4 ovarian; TK-10 renal; SF-539 CNS.
Experiment in all cases: NCI-60 cell line screen, 48 h

In the case of `COc1cc2c(c(OC)c1)C(=O)O[C@H](C)CCCC/C=C/C2`, the TGI in the assay with KM12 colon is greater than 35.2 µM; in the assay with OVCAR-8 ovarian, greater than 100 µM; in the assay with LOX IMVI melanoma, 23 µM; in the assay on T-47D breast, greater than 31.6 µM; with SR leukemia, greater than 100 µM; in the assay on HCT-15 colon it was greater than 66.9 µM. Further, the TGI is greater than 31.4 µM in the assay on OVCAR-4 ovarian, greater than 33.8 µM with TK-10 renal and 25.9 µM in the assay with SF-539 CNS.

In the case of `CC1CN=C(c2ccc(-c3nc(-c4ccc(C5=NCC(C)N5)cc4)nc(N(C)C)n3)cc2)N1` (stereo not drawn), the TGI with KM12 colon amounted to 8.96 µM; in the assay on OVCAR-8 ovarian it was 10 µM; with LOX IMVI melanoma, 2.93 µM; in the assay on T-47D breast it was 12.9 µM; in the assay with SR leukemia it was 2.49 µM; in the assay with HCT-15 colon, 33.9 µM. Besides, the TGI in the assay on OVCAR-4 ovarian was 3.67 µM; with TK-10 renal it was 11.5 µM; in the assay on SF-539 CNS it was 2.2 µM.

On to `C=CCc1ccccc1C1CC2(C(=O)OC)OC1C(C(=O)OC)=C2C(=O)OC` (stereo not drawn), for which the TGI in the assay with KM12 colon, in the assay with OVCAR-8 ovarian, in the assay with LOX IMVI melanoma, with T-47D breast, in the assay on SR leukemia and in the assay on HCT-15 colon was greater than 10 µM throughout. In addition, the TGI in the assay with OVCAR-4 ovarian, with TK-10 renal and with SF-539 CNS was greater than 10 µM in each case.

Take `NC(=S)N/N=C1\CCCC1C(O)(C(F)(F)Cl)C(F)(F)Cl` (stereo not drawn): the TGI in the assay with KM12 colon, with OVCAR-8 ovarian, with LOX IMVI melanoma, in the assay with T-47D breast, with SR leukemia and with HCT-15 colon was greater than 10 µM each time. In addition, the TGI in the assay with OVCAR-4 ovarian, with TK-10 renal and in the assay on SF-539 CNS was greater than 10 µM throughout.

As for `Cc1ccc(NC2=N/C(=C/c3ccco3)C(Cl)=N2)cc1`, the TGI with KM12 colon, with OVCAR-8 ovarian, in the assay with LOX IMVI melanoma, in the assay on T-47D breast, in the assay with SR leukemia and in the assay with HCT-15 colon was greater than 100 µM throughout. Besides, the TGI in the assay on OVCAR-4 ovarian, in the assay with TK-10 renal and in the assay on SF-539 CNS was greater than 100 µM each time.

In the case of `Cn1ccc2c(c1=O)C(=O)OC2(C)C`, the TGI in the assay with KM12 colon, with OVCAR-8 ovarian, with LOX IMVI melanoma, in the assay on T-47D breast, in the assay with SR leukemia and in the assay on HCT-15 colon was greater than 100 µM each time. Besides, the TGI with OVCAR-4 ovarian, in the assay on TK-10 renal and in the assay with SF-539 CNS was greater than 100 µM in each case.

`COc1cc(CNC(=S)CCCCCCCCCCC(C)C)ccc1O`: the TGI was 94.4 µM with KM12 colon; greater than 100 µM in the assay on OVCAR-8 ovarian; greater than 100 µM with LOX IMVI melanoma; 97.5 µM in the assay with T-47D breast; greater than 100 µM in the assay with SR leukemia; greater than 100 µM with HCT-15 colon. In addition, the TGI with OVCAR-4 ovarian, in the assay on TK-10 renal and with SF-539 CNS was greater than 100 µM throughout.

For `C=CCOC1(CC=C)C(=O)OC2C(O)COC21O` (stereo not drawn), the TGI with KM12 colon, with OVCAR-8 ovarian, with LOX IMVI melanoma, with T-47D breast, with SR leukemia and in the assay with HCT-15 colon was greater than 100 µM in each case. Besides, the TGI in the assay with OVCAR-4 ovarian, in the assay on TK-10 renal and in the assay on SF-539 CNS was greater than 100 µM throughout.

For `O=c1[nH]c2cc([N+](=O)[O-])c(Nc3c4ccccc4nc4ccccc34)c([N+](=O)[O-])c2[nH]1`, the TGI with KM12 colon worked out at 10.9 µM; with OVCAR-8 ovarian, 16.3 µM; in the assay with LOX IMVI melanoma it was 7.02 µM; in the assay with T-47D breast it was 8.83 µM; in the assay with SR leukemia it was 4.36 µM; in the assay with HCT-15 colon, 14.4 µM. Moreover, the TGI in the assay with OVCAR-4 ovarian is 13.9 µM; in the assay with TK-10 renal it was 6.85 µM; with SF-539 CNS, 13.7 µM.

For `CC(C#N)N(CCc1ccccc1)C(=O)c1ccccc1` (stereo not drawn), the TGI in the assay with KM12 colon, in the assay on OVCAR-8 ovarian, in the assay with LOX IMVI melanoma, in the assay on T-47D breast, in the assay on SR leukemia and in the assay on HCT-15 colon was greater than 100 µM each time. Besides, the TGI in the assay on OVCAR-4 ovarian, with TK-10 renal and in the assay on SF-539 CNS was greater than 100 µM each time.

With `COc1cc(S(=O)(=O)Nc2ccc(-c3csc(/N=C\c4ccccc4)n3)cc2)ccc1Cl`, the TGI with KM12 colon, with OVCAR-8 ovarian, with LOX IMVI melanoma, in the assay on T-47D breast, in the assay on SR leukemia and in the assay with HCT-15 colon was greater than 100 µM in each case. In addition, the TGI in the assay on OVCAR-4 ovarian and in the assay on SF-539 CNS was greater than 100 µM each time.

In the case of `O=P(O)(O)C=C=C1CCCCC1`, the TGI in the assay with KM12 colon, in the assay with OVCAR-8 ovarian, with LOX IMVI melanoma, in the assay with T-47D breast, in the assay on SR leukemia and in the assay with HCT-15 colon was greater than 100 µM each time. Moreover, the TGI in the assay on OVCAR-4 ovarian, in the assay with TK-10 renal and in the assay on SF-539 CNS was greater than 100 µM each time.

Take `Nn1c(Sc2nc3ccccc3c(=O)n2N)nc2ccccc2c1=O`: the TGI is greater than 62.3 µM in the assay with KM12 colon; 11.1 µM in the assay with OVCAR-8 ovarian; 4.25 µM in the assay on LOX IMVI melanoma; greater than 51.8 µM in the assay on T-47D breast; 5.1 µM in the assay on SR leukemia; 16.5 µM with HCT-15 colon. The TGI with OVCAR-4 ovarian was greater than 100 µM; with TK-10 renal, 42.2 µM; in the assay with SF-539 CNS it was 6.24 µM.

Consider `COc1cc2c(cc1O)CCN(C)[C@H]2Cc1ccc(Oc2c(O)c(OC)cc3c2C[C@H]2c4c(c(OC)c(OC)c(OC)c4-3)CCN2C)cc1`, for which the TGI was determined as 8.89 µM in the assay on KM12 colon; 13.1 µM with OVCAR-8 ovarian; 6.55 µM in the assay on LOX IMVI melanoma; 12.2 µM with T-47D breast; 4.86 µM with SR leukemia; 10.1 µM with HCT-15 colon. The values for the TGI in the assay on OVCAR-4 ovarian, in the assay on TK-10 renal and in the assay with SF-539 CNS were 4.38 µM, 11.3 µM and 11.5 µM, respectively.

`O=c1oc2cccnc2n1CCCCN1CCN(c2ccccc2)CC1`: the TGI in the assay with OVCAR-8 ovarian, in the assay with LOX IMVI melanoma, with T-47D breast, in the assay on SR leukemia, in the assay on HCT-15 colon and in the assay on OVCAR-4 ovarian was greater than 100 µM throughout. Also, the TGI in the assay on TK-10 renal and in the assay on SF-539 CNS was greater than 100 µM each time.

For the origin of these results see PubChem BioAssay (NCI).
